Assay results published in the supplement of paper PMC10307832.

Experiments:
Test in all cases: relative viability (nuclei count vs DMSO), 5 days (fraction); higher = more cells survive
Motesanib + Pemetrexed = compound: CC1(C)CNc2cc(NC(=O)c3cccnc3NCc3ccncc3)ccc21 [Motesanib] + Nc1nc2[nH]cc(CCc3ccc(C(=O)N[C@@H](CCC(=O)O)C(=O)O)cc3)c2c(=O)[nH]1 [Pemetrexed] (partner 0.2 µM)
How it was run: (§1)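 Lung cancer cell lines in 1536-well plates were dosed by pin tool the day after seeding, either with one drug alone or with a fixed anchor-drug dose plus five library-drug doses (not always all listed) in √10 steps. After 5 days, cells were fixed and their nuclei stained in one step (final 0.05% Triton X-100, 1% formaldehyde, 1 ug/ml Hoechst), then counted on 4× images. Relative viability is the nuclei count in treated wells divided by that in vehicle wells. Values are medians of duplicate plates.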

Motesanib + Crizotinib = compound: CC1(C)CNc2cc(NC(=O)c3cccnc3NCc3ccncc3)ccc21 [Motesanib] + C[C@@H](Oc1cc(-c2cnn(C3CCNCC3)c2)cnc1N)c1c(Cl)ccc(F)c1Cl [Crizotinib] (partner 1 µM)
How it was run: as §1

Motesanib + Luminespib = compound: CC1(C)CNc2cc(NC(=O)c3cccnc3NCc3ccncc3)ccc21 [Motesanib] + CCNC(=O)c1noc(-c2cc(C(C)C)c(O)cc2O)c1-c1ccc(CN2CCOCC2)cc1 [Luminespib] (partner 0.01 µM)
How it was run: as §1

[1] = compound: C[C@@]1(C(=O)Nc2ccc(F)nc2)CCCN1c1nc(Nc2cc(C3CC3)n[nH]2)c2cccn2n1 + COc1cccc2cc(-c3nc([C@H]4CC[C@H](C(=O)O)CC4)n4ncnc(N)c34)[nH]c12 [OSI-027] (partner 0.5 µM)
How it was run: as §1

| Cell Line | relative viability (Motesanib + Pemetrexed; first compound 0.01 µM) | relative viability (Motesanib + Pemetrexed; first compound 0.03162 µM) | relative viability (Motesanib + Pemetrexed; first compound 0.1 µM) | relative viability (Motesanib + Pemetrexed; first compound 0.3162 µM) | relative viability (Motesanib + Pemetrexed; first compound 1 µM) | relative viability (Motesanib + Crizotinib; first compound 0.01 µM) | relative viability (Motesanib + Crizotinib; first compound 0.03162 µM) | relative viability (Motesanib + Crizotinib; first compound 0.1 µM) | relative viability (Motesanib + Crizotinib; first compound 0.3162 µM) | relative viability (Motesanib + Crizotinib; first compound 1 µM) | relative viability (Motesanib + Luminespib; first compound 0.01 µM) | relative viability (Motesanib + Luminespib; first compound 0.03162 µM) | relative viability (Motesanib + Luminespib; first compound 0.1 µM) | relative viability (Motesanib + Luminespib; first compound 0.3162 µM) | relative viability (Motesanib + Luminespib; first compound 1 µM) | relative viability ([1]; first compound 0.04 µM) | relative viability ([1]; first compound 0.1265 µM) | relative viability ([1]; first compound 0.4 µM) | relative viability ([1]; first compound 1.265 µM) |
| --- | --- | --- | --- | --- | --- | --- | --- | --- | --- | --- | --- | --- | --- | --- | --- | --- | --- | --- | --- |
| HCC-827 | 0.252 | 0.301 | 0.271 | 0.277 | 0.29 | 0.99 | 0.985 | 0.998 | 0.955 | 0.93 | 0.777 | 0.809 | 0.775 | 0.75 | 0.576 | 0.393 | 0.782 | 0.707 | 0.724 |
| HOP-62 | 0.288 | 0.296 | 0.214 | 0.209 | 0.173 | 0.899 | 0.82 | 0.859 | 1.05 | 0.932 | 0.942 | 0.834 | 0.954 | 0.853 | 0.935 | 0.758 | 0.574 | 0.641 | 0.657 |
| IA-LM |  |  |  |  |  | 0.829 | 0.745 | 1.21 | 0.729 | 0.803 |  |  |  |  |  |  |  |  |  |
| LC-2-ad | 0.289 | 0.259 | 0.268 | 0.262 | 0.256 | 0.442 | 0.46 |  | 0.441 | 0.484 | 1.03 | 1.01 | 0.959 | 1.07 | 1.19 | 0.601 | 0.458 | 0.405 | 0.392 |
| LCLC-97TM1 | 0.175 | 0.153 | 0.151 | 0.16 | 0.173 | 0.362 | 0.429 | 0.373 | 0.469 | 0.486 | 0.635 | 0.809 | 0.707 | 0.813 | 0.793 | 0.284 | 0.111 | 0.122 | 0.112 |
| LCLC-103H | 0.458 | 0.435 | 0.429 | 0.505 | 0.458 |  | 1.13 | 0.986 | 1.08 | 1.15 | 0.92 | 0.92 | 0.996 | 1.04 | 0.98 | 0.434 | 0.295 | 0.268 | 0.274 |
| LK-2 | 0.234 | 0.288 | 0.208 | 0.256 | 0.171 | 0.232 | 0.234 | 0.231 | 0.249 | 0.217 | 0.213 | 0.191 |  | 0.189 | 0.192 |  | 0.163 | 0.153 | 0.178 |
| LOU-NH91 | 0.357 | 0.37 | 0.373 | 0.406 | 0.382 | 0.743 | 0.746 | 0.743 | 0.769 | 0.729 | 0.38 | 0.364 | 0.332 | 0.379 | 0.393 | 0.65 | 0.665 | 0.59 | 0.563 |
| LU99A | 0.2 | 0.181 | 0.185 | 0.18 | 0.174 | 0.518 | 0.477 | 0.493 | 0.549 | 0.574 | 0.228 | 0.187 | 0.336 | 0.243 | 0.25 | 0.251 | 0.233 | 0.223 | 0.186 |
